Converted amounts (≈) assume the structure as drawn. “And” between values parts separate entries of the source, which are not always exact repeats. Identical values can stand only once.

Assay in all cases: ≥ marks a high value that may be exact or a test limit, other limits are often not marked, values filed in µg/mL are converted to µM
Experiment [1] deals with Escherichia coli JM109.
The subject of experiment [2] is Botrytis cinerea.
Experiment [3] has as its system Lactobacillus delbrueckii subsp. bulgaricus.
The test system of experiment [4] is Escherichia coli ATCC 11775.
The test system of experiment [5] is Salmonella typhimurium CCRC 12947.
Experiment [6] relates to Bifidobacterium adolescentis.
Experiment [7] relates to Staphylococcus aureus.
Experiment [8] concerns Vibrio parahaemolyticus CCRC 10806.
Experiment [9] deals with Staphylococcus aureus CCRC 15211.
Experiment [10] relates to Shigella sonnei EW-33.
Experiment [11] relates to Staphylococcus aureus CCRC 12652.
Experiment [12] deals with Enterococcus faecalis.
Experiment [13] deals with Staphylococcus aureus 1840.
Experiment [14] relates to Escherichia coli BL21.
Experiment [15] concerns Acinetobacter baumannii.
Experiment [16] relates to Salmonella enterica.
The test system of experiment [17] is Klebsiella pneumoniae.
The subject of experiment [18] is Staphylococcus epidermidis ATCC 12228.
Experiment [19] deals with Shigella flexneri EW-10.
Experiment [20] relates to Staphylococcus xylosus.
The subject of experiment [21] is Bacillus subtilis PCI 219.
Experiment [22] deals with Staphylococcus aureus FDA 209P.
Experiment [23] concerns Enterococcus faecalis LS-101.
The test system of experiment [24] is Klebsiella pneumoniae CCRC 10694.
The subject of experiment [25] is Candida albicans ATCC 10231.
Experiment [26] concerns Enterococcus faecium.
In experiment [27] the test system is Enterococcus faecium EFMY-28.
Experiment [28] deals with Staphylococcus aureus ATCC 12600.
The test system of experiment [29] is Escherichia coli NIHJ JC-2.
The subject of experiment [30] is Citrobacter koseri.
Experiment [31] has as its system Pseudomonas aeruginosa.
Experiment [32] has as its system Candida glabrata CG196/98IDE.
Experiment [33] deals with Escherichia coli B.
In experiment [34] the test system is Bacillus subtilis 168.
In experiment [35] the test system is Candida parapsilosis Z150/119/IDE99.
Experiment [36] has as its system Candida krusei CK802/97.
In experiment [37] the test system is Pseudomonas aeruginosa ATCC 27853.
Experiment [38] deals with Staphylococcus aureus ATCC 33591.
The subject of experiment [39] is Enterococcus faecium ATCC 700221.
For experiment [40], the system named is Candida albicans ATCC 200955.
In experiment [41] the test system is Staphylococcus aureus ATCC 25923.
For experiment [42], the system named is Proteus mirabilis CCUG 26767.
In experiment [43] the test system is Bacillus subtilis.
Experiment [44] relates to Enterococcus faecium NTCC 12697.
The subject of experiment [45] is Klebsiella pneumoniae ATCC 13883.
For experiment [46], the system named is Bacillus subtilis ATCC 6633.
In experiment [47] the test system is Staphylococcus aureus ATCC 29213.
The test system of experiment [48] is Staphylococcus aureus ATCC 8530.
Experiment [49] relates to Staphylococcus aureus NCTC 12493.
Experiment [50] deals with Pseudomonas aeruginosa ATCC 9027.
The test system of experiment [51] is Escherichia coli W160-37.
The subject of experiment [52] is Klebsiella pneumoniae ATCC 43816.
Experiment [53] relates to Escherichia coli ATCC 25922.
Experiment [54] concerns Enterococcus faecium ATCC 19434.
Experiment [55] deals with Escherichia coli ATCC 8739.
Experiment [56] relates to Enterococcus faecalis ATCC 19433.
The test system of experiment [57] is Staphylococcus aureus NCTC 10788.
Experiment [58] has as its system Salmonella enterica subsp. enterica serovar Typhimurium LT2.

One may read the MIC as the lowest concentration that inhibits growth of the organism. A low value points to a more susceptible organism. `CC[C@H](C)[C@H](NC(=O)[C@H](CO)NC(=O)[C@H](CCCCN)NC(=O)[C@H](CC(C)C)NC(=O)[C@H](CCCCN)NC(=O)[C@@H](N)CC(C)C)C(=O)N[C@H](C(=O)N[C@@H](CO)C(=O)N[C@@H](Cc1c[nH]c2ccccc12)C(=O)N[C@@H](C)C(=O)N[C@@H](CCCCN)C(=O)N[C@@H](CCCCN)C(=O)N[C@H](C(=O)N[C@@H](CC(C)C)C(N)=O)C(C)C)C(C)C` [LKLKSIVSWAKKVL]: the MIC is 0.62 µM (≈ 0.999 µg/mL) in experiment [1]; 4.96 µM (≈ 8 µg/mL) in [2]; no less than 79.4 µM in [3]; 31 µM (≈ 50 µg/mL) in experiment [4]; 19.8 µM (≈ 32 µg/mL) in experiment [5]; no less than 79.4 µM in experiment [6]. In addition, the MIC turned out to be 8.25 µM (≈ 13.3 µg/mL) in [7]; 7.01 µM (≈ 11.3 µg/mL) in experiment [8]; 14 µM (≈ 22.6 µg/mL) in [9]; 3.87 µM (≈ 6.25 µg/mL) in experiment [10]; 9.92 µM (≈ 16 µg/mL) in experiment [11]; 6.63 µM (≈ 10.7 µg/mL) in experiment [12]. Also, the MIC in experiment [13] was 15.5 µM (≈ 25 µg/mL); in experiment [14], 3.51 µM (≈ 5.65 µg/mL); in experiment [15], 1.05 µM and 1.24 µM; in experiment [16], 19.8 µM (≈ 32 µg/mL); in [17], greater than 15.5 µM; in [18], 3.87 µM (≈ 6.25 µg/mL). Moreover, the MIC in [19] is 3.87 µM (≈ 6.25 µg/mL); in experiment [20], 0.31 µM (≈ 0.5 µg/mL); in [21], 1.94 µM (≈ 3.13 µg/mL); in experiment [22] it was 7.75 µM (≈ 12.5 µg/mL); in [23], 1.94 µM (≈ 3.13 µg/mL); in experiment [24], no less than 39.7 µM. Besides, the MIC in experiment [25] was 15.5 µM (≈ 25 µg/mL); in experiment [26] it was no less than 79.4 µM; in experiment [27], 12.5 µM (≈ 20.2 µg/mL); in experiment [28], 3.1 µM (≈ 5 µg/mL); in experiment [29] it was 7.75 µM (≈ 12.5 µg/mL); in experiment [30], 1.75 µM (≈ 2.83 µg/mL).

Consider `CC[C@H](C)[C@H](NC(=O)[C@H](CC(C)C)NC(=O)[C@H](Cc1cnc[nH]1)NC(=O)CNC(=O)[C@H](CC(C)C)NC(=O)[C@@H](NC(=O)[C@H](CCCCN)NC(=O)[C@H](CCCCN)NC(=O)[C@H](Cc1c[nH]c2ccccc12)NC(=O)[C@H](CCSC)NC(=O)CN)[C@@H](C)CC)C(=O)N[C@@H](CCCN=C(N)N)C(N)=O` [GMWKKILGHLIR], for which the MIC in [31] was 16.3 µM (≈ 23.6 µg/mL); in [32] it was ≥ 40 µM and 25 µM and 30 µM; in [7], 8.4 µM (≈ 12.2 µg/mL); in experiment [33] it was 1.8 µM (≈ 2.61 µg/mL); in experiment [34], 0.9 µM (≈ 1.31 µg/mL); in experiment [35], 30 µM and 15 µM. Also, the minimum inhibitory concentration (MIC) in experiment [36] is 30 µM and 15 µM and 20 µM.

With `CC[C@H](C)[C@H](NC(=O)[C@H](Cc1c[nH]c2ccccc12)NC(=O)[C@H](CCCCN)NC(=O)[C@H](CC(C)C)NC(=O)[C@H](CC(C)C)NC(=O)CN)C(=O)N[C@@H](CCCCN)C(=O)N[C@H](C(=O)N[C@@H](CC(C)C)C(=O)N[C@@H](CC(C)C)C(N)=O)[C@@H](C)O` [GLLKWIKTLL], the minimal inhibitory concentration (MIC) in experiment [37] came out at 28.4 µM (≈ 33.6 µg/mL); in [38], 9.5 µM (≈ 11.2 µg/mL); in experiment [39], 9.5 µM (≈ 11.2 µg/mL); in experiment [40] it was 28.4 µM (≈ 33.6 µg/mL); in experiment [41], 1.69 µM (≈ 2 µg/mL).

As to `CC[C@H](C)[C@H](NC(=O)[C@H](CC(C)C)NC(=O)[C@@H]1CCCN1C(=O)[C@H](CC(C)C)NC(=O)[C@@H](N)Cc1ccccc1)C(=O)N[C@@H](CC(C)C)C(=O)N[C@@H](CCCN=C(N)N)C(=O)N[C@@H](CCCCN)C(=O)N[C@H](C(=O)N[C@H](C(=O)N[C@H](C(=O)N[C@@H](C)C(=O)N[C@@H](CC(C)C)C(N)=O)[C@@H](C)O)C(C)C)[C@@H](C)CC` [FLPLILRKIVTAL], the MIC was no less than 401 µM in experiment [42]; no less than 50.1 µM in experiment [43]; 16 µM (≈ 23.9 µg/mL) in [44]; greater than 401 µM in experiment [37]; no less than 401 µM in experiment [45]; no less than 200 µM in experiment [46]. Besides, the MIC was 200 µM (≈ 300 µg/mL) in [47]; no less than 200 µM in experiment [48]; 4 µM (≈ 5.98 µg/mL) in experiment [49]; 128 µM (≈ 191 µg/mL) in [50]; no less than 100 µM in experiment [51]; no less than 64 µM in [52]. The MIC in experiment [53] is 200 µM (≈ 300 µg/mL); in experiment [54], no less than 50.1 µM; in [55], no less than 32 µM; in [56], no less than 100 µM; in [57], 2 µM (≈ 2.99 µg/mL); in experiment [58], no less than 200 µM.
